Assay results published in publication PMC6278664, “Highly Cancer Selective Antiproliferative Activity of Natural Prenylated Flavonoids” (Molecules, 2018).
Read-outs that look alike come from different tables or passages of the source.

Tests used:
Format in all cases: cell-based
[1] = test system: MCF7 human breast cancer cell line; assay: SRB antiproliferative assay, MCF7; conditions: for IC50: SRB, 72 h, mean ± SD; for Selectivity index SIA, MCF-7: IC50 HLMEC / IC50 MCF-7; for Selectivity index SIB, MCF-7: IC50 MCF-10A / IC50 MCF-7
Protocol: (§1) We determined the effect of various structural factors in the substrates on the antiproliferative activity against those selected to the study cell lines: the location and/or the presence of the prenyl group, the chalcone/flavanone skeleton and the presence of an O-methyl group at C-5 in flavanones. Flavonoids presented in Figure 1 were tested for the antiproliferative activity towards eight cancer cell lines including estrogen-dependent (MCF7 and T-47D) and two normal ones (HLMEC and MCF 10A). The in vitro antiproliferative activity was measured using SRB assay. The results are presented in Figure 2 (and in the supplement in Table S1). The antiproliferative activity was measured separately for each of the experiments and given as the average IC50 (the concentration of tested compound which inhibits 50% of the cells population). Cisplatin (CP), a common anticancer drug, was used as a positive control.
(§2) The following established in vitro cell lines were applied: MCF7, T-47D, MDA-MB-231 (human breast cancer cell line), A2780 (human ovarian cancer cell line), A2780cis (human cisplatin-resistant ovarian cancer cell line), PC-3 and DU 145 (human prostate cancer cell lines), HT-29 (human colon cancer cell line), HLMEC (human lung microvascular endothelial cell line), and MCF 10A (human mammary epithelial cells line).
(§3) The cell lines: MDA-MB-231, HT-29, PC-3, DU 145, and MCF 10A were obtained from the American Type Culture Collection (Rockville, MD, USA), MCF7, T-47D, A2780, A2780cis from the European Collection Cell Cultures (Sigma-Aldrich, Chemie GmbH, Steinheim, Germany), while the HLMEC cell line was obtained by M. Paprocka from the institute. All cell lines are being maintained in the Institute of Immunology and Experimental Therapy (Wrocław, Poland). DU 145 and MCF7 cells were cultured in Eagle medium (supplemented with 4mM L-glutamine, 10% fetal bovine serum, 1 mM sodium pyruvate for DU 145 cells or 2 mM L-glutamine, 1% mem non-essential amino acid solution and 8 µg/mL insulin and 10% fetal bovine serum for MCF7). […] HT-29 and T-47D cell lines were cultured in RPMI 1640 + OPTI-MEM medium supplemented with 2 mM L-glutamine, 5% fetal bovine serum and 8 µg/mL of insulin (T-47D) or 1 mM sodium pyruvate (HT-29). MDA-MB-231, PC-3 and HLMEC cell lines were cultured in RPMI 1640 medium supplemented with 2 mM L-glutamine and 10% fetal bovine serum. Medium for MCF 10A cell line consisted of F-12 nutrient mixture supplemented with cholera toxin (0.05 µg/mL), insulin (10 µg/mL), hydrocortisone (0.5 µg/mL), 5% horse serum, and EGFH (20 ng/mL). All the culture media contained antibiotics: 100 units/mL penicillin (Polfa Tarchomin SA, Warsaw, Poland), and 100 µg/mL streptomycin (Sigma-Aldrich, Chemie GmbH, Steinheim, Germany). All cell lines were grown at 37 °C with 5% CO2 humidified atmosphere.
(§4) Twenty-four hours before the incubation with the tested compounds, the cells were seeded in 96-plates (Sarstedt, Germany) at a density of 1 × 10^4 cells per well (0.75 × 10^4 per well for MCF7 and 1 × 10^3 per well for HLMEC) in 100 µL of a culture medium.
(§5) Each agent at each concentration (from 0.1 to 100 µg/mL) was tested in a single experiment, which was repeated four to five times. […] Cisplatin was used as a reference drug.
(§6) The results were calculated as the IC50 (inhibitory concentration 50%)—the concentration of the tested compound which inhibits 50% of the cells population. IC50 values were calculated for each experiment separately and mean values ± SD are presented in the Table S1 in the Supplementary Materials. Each compound at each concentration was tested in triplicate in a single experiment, which was repeated four to five times.
(§7) The cells were fixed in situ by gently adding cold 50% trichloroacetic acid (50 µL per well). The plates were incubated at 4 °C for 1h and then washed five times with tap water. […]

[2] = test system: T-47D human breast cancer cell line; assay: SRB antiproliferative assay, T-47D; conditions: for IC50: SRB, 72 h, mean ± SD; for Selectivity index SIA, T-47D: IC50 HLMEC / IC50 T-47D; for Selectivity index SIB, T-47D: IC50 MCF-10A / IC50 T-47D
Protocol: as §1, §2, §3, §4, §5, §6, §7

[3] = test system: MDA-MB-231 human breast cancer cell line; assay: SRB antiproliferative assay, MDA-MB-231; conditions: for IC50: SRB, 72 h, mean ± SD; for Selectivity index SIA, MDA-MB-231: IC50 HLMEC / IC50 MDA-MB-231; for Selectivity index SIB, MDA-MB-231: IC50 MCF-10A / IC50 MDA-MB-231
Protocol: as §1, §2, §3, §4, §5, §6, §7

[4] = test system: HT-29 human colon cancer cell line; assay: SRB antiproliferative assay, HT-29; conditions: for IC50: SRB, 72 h, mean ± SD; for Selectivity index SIA, HT-29: IC50 HLMEC / IC50 HT-29; for Selectivity index SIB, HT-29: IC50 MCF-10A / IC50 HT-29
[5] = test system: A2780 human ovarian cancer cell line; assay: SRB antiproliferative assay, A2780; conditions: for IC50: SRB, 72 h, mean ± SD, read-out: Cancer cell line, IC50, A-2780; for Selectivity index SIA, A-2780: IC50 HLMEC / IC50 A-2780; for Selectivity index SIB, A-2780: IC50 MCF-10A / IC50 A-2780
Protocol: as §1, §2, §3, §4, §5, §6, §7

[6] = test system: A2780cis human cisplatin-resistant ovarian cancer cell line; assay: SRB antiproliferative assay, A2780cis; conditions: for IC50: SRB, 72 h, mean ± SD, read-out: Cancer cell line, IC50, A-2780cis; for Selectivity index SIA, A-2780cis: IC50 HLMEC / IC50 A-2780cis; for Selectivity index SIB, A-2780cis: IC50 MCF-10A / IC50 A-2780cis
Protocol: as §1, §2, §3, §4, §5, §6, §7

[7] = test system: PC-3 human prostate cancer cell line; assay: SRB antiproliferative assay, PC-3; conditions: for IC50: SRB, 72 h, mean ± SD; for Selectivity index SIA, PC-3: IC50 HLMEC / IC50 PC-3; for Selectivity index SIB, PC-3: IC50 MCF-10A / IC50 PC-3
Protocol: as §1, §2, §3, §4, §5, §6, §7

[8] = test system: DU 145 human prostate cancer cell line; assay: SRB antiproliferative assay, DU 145; conditions: for IC50: SRB, 72 h, mean ± SD; for Selectivity index SIA, Du-145: IC50 HLMEC / IC50 Du-145; for Selectivity index SIB, Du-145: IC50 MCF-10A / IC50 Du-145
Protocol: as §1, §2, §3, §4, §5, §6, §7

[9] = test system: HLMEC human lung microvascular endothelial cell line; assay: SRB antiproliferative assay, HLMEC (normal); conditions: 72 h, mean ± SD
[10] = test system: MCF 10A human mammary epithelial cells line; assay: SRB antiproliferative assay, MCF 10A (normal); conditions: 72 h, mean ± SD, read-out: Normal cell line, IC50, MCF-10A
Protocol: as §1, §2, §3, §4, §5, §6, §7

## O=C1C[C@@H](c2ccc(O)cc2)Oc2cc(O)cc(O)c21 [NG, Naringenin, reference compound]
[1]; Homo sapiens, MCF7, 72 h
  IC50: 131 ± 6.11 µM
[1]
  Selectivity index SIA, MCF-7: 0.90
  Selectivity index SIB, MCF-7: 1.43
  IC50: 187 ± 72.4 µM
[2]; Homo sapiens, T47D
  IC50: 105 ± 48.3 µM
[2]
  Selectivity index SIA, T-47D: 1.12
  Selectivity index SIB, T-47D: 1.79
[3]; Homo sapiens, MDA-MB-231
  IC50: 166 ± 82.4 µM
[3]
  Selectivity index SIA, MDA-MB-231: 0.71
  Selectivity index SIB, MDA-MB-231: 1.13
[4]; Homo sapiens, HT-29
  IC50: 131 ± 28.2 µM
[4]
  Selectivity index SIA, HT-29: 0.90
  Selectivity index SIB, HT-29: 1.43
[5]; Homo sapiens, A2780
  IC50: 100 ± 4.77 µM
[5]
  Selectivity index SIA, A-2780: 1.17
  Selectivity index SIB, A-2780: 1.87
[6]; Homo sapiens, A2780cis
  IC50: 109 ± 17 µM
[6]
  Selectivity index SIA, A-2780cis: 1.07
  Selectivity index SIB, A-2780cis: 1.71
[7]; Homo sapiens
  IC50: 171 ± 28.8 µM
[7]
  Selectivity index SIA, PC-3: 0.68
  Selectivity index SIB, PC-3: 1.09
[8]; Homo sapiens, DU-145
  IC50: 134 ± 12.9 µM
[8]
  Selectivity index SIA, Du-145: 0.88
  Selectivity index SIB, Du-145: 1.40
[9]; Homo sapiens, Endothelial cell
  IC50: 117 ± 32.3 µM
[10]; Homo sapiens, MCF-10A
  IC50: 187 ± 72.4 µM

## N.N.[Cl][Pt][Cl] [Cisplatin (CP), Cisplatin, reference compound]
[1]
  IC50: 6.29 ± 1.05 µM
[2]
  IC50: 22.2 ± 7.32 µM
[3]
  IC50: 16.9 ± 5.45 µM
[4]
  IC50: 9.56 ± 3.75 µM
[5]
  IC50: 0.97 ± 0.46 µM
[6]
  IC50: 12.1 ± 1.27 µM
[7]
  IC50: 11.4 ± 2.23 µM
[8]
  IC50: 2.73 ± 1.32 µM
[9]
  IC50: 0.93 ± 0.28 µM
[10]
  IC50: 13.6 ± 4.93 µM

## COc1cc(O)c(CC=C(C)C)c(O)c1C(=O)CCc1ccc(O)cc1 [2HXN, 3′-(3,3-dimethylallyl)-4,2′,4′-trihydroxy-6′-methoxy-α,β-dihydrochalcone]
[1]; Homo sapiens, MCF7, 72 h
  IC50: 10.1 ± 2.31 µM
[1]
  Selectivity index SIA, MCF-7: 1.41
  Selectivity index SIB, MCF-7: 7.15
[2]; Homo sapiens, T47D
  IC50: 7.27 ± 3.05 µM
[2]
  Selectivity index SIA, T-47D: 1.95
  Selectivity index SIB, T-47D: 9.91
[3]; Homo sapiens, MDA-MB-231
  IC50: 10 ± 3.26 µM
[3]
  Selectivity index SIA, MDA-MB-231: 1.41
  Selectivity index SIB, MDA-MB-231: 7.19
[4]; Homo sapiens, HT-29
  IC50: 12.2 ± 2.99 µM
[4]
  Selectivity index SIA, HT-29: 1.16
  Selectivity index SIB, HT-29: 5.89
[5]; Homo sapiens, A2780
  IC50: 1.8 ± 0.64 µM
[5]
  Selectivity index SIA, A-2780: 7.87
  Selectivity index SIB, A-2780: 40.03
[5]; ratio of SIA to SIA of cisplatin
  SIA against A2780, times higher than the reference: 5-8 times
[6]; Homo sapiens, A2780cis
  IC50: 11.6 ± 3.36 µM
[6]
  Selectivity index SIA, A-2780cis: 1.22
  Selectivity index SIB, A-2780cis: 6.22
[7]; Homo sapiens
  IC50: 16.3 ± 5.22 µM
[7]
  Selectivity index SIA, PC-3: 0.87
  Selectivity index SIB, PC-3: 4.43
[8]; Homo sapiens, DU-145
  IC50: 13 ± 4.2 µM
[8]
  Selectivity index SIA, Du-145: 1.09
  Selectivity index SIB, Du-145: 5.56
[9]; Homo sapiens, Endothelial cell
  IC50: 14.2 ± 4.24 µM
[10]; Homo sapiens, MCF-10A
  IC50: 72 ± 8.55 µM

## CC(C)=CCc1c(O)cc2c(c1O)C(=O)CC(c1ccc(O)cc1)O2 (stereo not drawn) [6PN, 6-(3,3-dimethylallyl)-5,7,4′-trihydroxyflavanone]
[1]; Homo sapiens, MCF7, 72 h
  IC50: 43.2 ± 4.37 µM
[1]
  Selectivity index SIA, MCF-7: 0.32
  Selectivity index SIB, MCF-7: 2.54
[2]; Homo sapiens, T47D
  IC50: 16 ± 3.74 µM
[2]
  Selectivity index SIA, T-47D: 0.86
  Selectivity index SIB, T-47D: 6.87
[3]; Homo sapiens, MDA-MB-231
  IC50: 62.6 ± 19.5 µM
[3]
  Selectivity index SIA, MDA-MB-231: 0.22
  Selectivity index SIB, MDA-MB-231: 1.76
[4]; Homo sapiens, HT-29
  IC50: 64.6 ± 17.1 µM
[4]
  Selectivity index SIA, HT-29: 0.21
  Selectivity index SIB, HT-29: 1.70
[5]; Homo sapiens, A2780
  IC50: 44.2 ± 14.7 µM
[5]
  Selectivity index SIA, A-2780: 0.31
  Selectivity index SIB, A-2780: 2.49
[6]; Homo sapiens, A2780cis
  IC50: 81.7 ± 17.7 µM
[6]
  Selectivity index SIA, A-2780cis: 0.17
  Selectivity index SIB, A-2780cis: 1.35
[7]; Homo sapiens
  IC50: 75.5 ± 29.8 µM
[7]
  Selectivity index SIA, PC-3: 0.18
  Selectivity index SIB, PC-3: 1.46
[8]; Homo sapiens, DU-145
  IC50: 79.6 ± 8.89 µM
[8]
  Selectivity index SIA, Du-145: 0.17
  Selectivity index SIB, Du-145: 1.38
[9]; Homo sapiens, Endothelial cell
  IC50: 13.7 ± 5.16 µM
[10]; Homo sapiens, MCF-10A
  IC50: 110 ± 33 µM
